Patent US10259808B2 (Genentech, Inc., priority 2015, dated 2019)

The compounds below were run against T1, RORc ligand binding domain (Homo sapiens, UniProt P51449) (assay: In vitro RORc ligand binding assay (25-[3H]hydroxycholesterol displacement)). Details: not given.
T1 sequence (P51449 269-508 limits assumed): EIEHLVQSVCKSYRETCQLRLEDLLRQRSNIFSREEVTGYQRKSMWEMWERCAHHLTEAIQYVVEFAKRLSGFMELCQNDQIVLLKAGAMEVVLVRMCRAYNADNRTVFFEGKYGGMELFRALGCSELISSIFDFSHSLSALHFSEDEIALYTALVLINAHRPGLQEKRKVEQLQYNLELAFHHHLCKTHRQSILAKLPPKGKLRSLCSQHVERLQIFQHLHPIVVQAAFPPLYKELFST

| Compound | IC50 |
| --- | --- |
| C[C@H]1CC[C@H](c2ccccc2)S(=O)(=O)N1Cc1ccc(C2(c3noc(CO)n3)CCOCC2)cc1F [Example 29, [3-[4-[3-fluoro-4-[[(3S,6R)-3-methyl-1,1-dioxo-6-phenyl-thiazinan-2-yl]methyl]phenyl]tetrahydropyran-4-yl]-1,2,4-oxadiazol-5-yl]methanol] | 63.6 nM |
| C[C@H]1CC[C@H](c2ccccc2)S(=O)(=O)N1Cc1cc(F)c(C2(Nc3ncccn3)COC2)cc1F [Example 101, N-[3-[2,5-difluoro-4-[[(3S,6R)-3-methyl-1,1-dioxo-6-phenyl-thiazinan-2-yl]methyl]phenyl]oxetan-3-yl]pyrimidin-2-amine] | 60.7 nM |
| Cc1nn(C)cc1CNC1(c2cc(F)c(CN3[C@@H](C)CC[C@H](c4ccccc4)S3(=O)=O)cc2F)COC1 [Example 135, 3-[2,5-difluoro-4-[[(3S,6R)-3-methyl-1,1-dioxo-6-phenyl-thiazinan-2-yl]methyl]phenyl]-N-[(1,3-dimethylpyrazol-4-yl)methyl]oxetan-3-amine] | 201 nM |
| Cc1cc(COC2(c3cc(F)c(CN4[C@@H](C)CC[C@H](c5ccccc5)S4(=O)=O)cc3F)COC2)no1 [Example 110, (3S,6R)-2-[[2,5-difluoro-4-[3-[(5-methylisoxazol-3-yl)methoxy]oxetan-3-yl]phenyl]methyl]-3-methyl-6-phenyl-thiazinane 1,1-dioxide] | 1.3 nM |
| Cc1cc(CNC2(c3cc(F)c(CN4[C@@H](C)CC[C@H](c5ccccc5)S4(=O)=O)cc3F)CCOCC2)no1 [Example 86, 4-[2,5-difluoro-4-[[(3S,6R)-3-methyl-1,1-dioxo-6-phenyl-thiazinan-2-yl]methyl]phenyl]-N-[(5-methylisoxazol-3-yl)methyl]tetrahydropyran-4-amine] | 5 nM |
| C[C@H]1CC[C@H](c2ccccc2)S(=O)(=O)N1Cc1cc(F)c(C2(NCc3cnn(C)c3)COC2)cc1F [Example 138, 3-[2,5-difluoro-4-[[(3S,6R)-3-methyl-1,1-dioxo-6-phenyl-thiazinan-2-yl]methyl]phenyl]-N-[(1-methylpyrazol-4-yl)methyl]oxetan-3-amine] | 69.4 nM |
| C[C@H]1CC[C@H](c2ccccc2)S(=O)(=O)N1Cc1cc(F)c([C@]2(c3n[nH]c(=O)o3)C[C@](C)(F)C2)cc1F [Example 139, trans 5-[1-[2,5-difluoro-4-[[(3S,6R)-3-methyl-1,1-dioxo-6-phenyl-thiazinan-2-yl]methyl]phenyl]-3-fluoro-3-methyl-cyclobutyl]-3H-1,3,4-oxadiazol-2-one] | 3.9 nM |
| CNC(=O)c1nc(CNC(=O)C2(c3ccc(CN4[C@@H](C)CC[C@H](c5ccccc5)S4(=O)=O)c(F)c3)CCOCC2)no1 [Example 15, 3-[[[4-[3-fluoro-4-[[(3S,6R)-3-methyl-1,1-dioxo-6-phenyl-thiazinan-2-yl]methyl]phenyl]tetrahydropyran-4-carbonyl]amino]methyl]-N-methyl-1,2,4-oxadiazole-5-carboxamide] | 9.4 nM |
| C[C@H]1CC[C@H](c2ccccc2)S(=O)(=O)N1Cc1ccc(C2(c3noc(=O)[nH]3)CCOCC2)cc1F [Example 30, 3-[4-[3-fluoro-4-[[(3S,6R)-3-methyl-1,1-dioxo-6-phenyl-thiazinan-2-yl]methyl]phenyl]tetrahydropyran-4-yl]-4H-1,2,4-oxadiazol-5-one] | 245 nM |
| C[C@H]1CC[C@H](c2ccccc2)S(=O)(=O)N1Cc1cc(F)c(C2(Nc3cnccn3)COC2)cc1F [Example 105, N-[3-[2,5-difluoro-4-[[(3S,6R)-3-methyl-1,1-dioxo-6-phenyl-thiazinan-2-yl]methyl]phenyl]oxetan-3-yl]pyrazin-2-amine] | 2.2 nM |
| C[C@H]1CC[C@H](c2ccccc2)S(=O)(=O)N1Cc1ccc(C2(NCc3ncnn3C)CCOCC2)cc1F [Example 55, 4-[3-fluoro-4-[[(3S,6R)-3-methyl-1,1-dioxo-6-phenyl-thiazinan-2-yl]methyl]phenyl]-N-[(2-methyl-1,2,4-triazol-3-yl)methyl]tetrahydropyran-4-amine] | 10.7 nM |
| C[C@H]1CC[C@H](c2ccccc2)S(=O)(=O)N1Cc1cc(F)c([C@]2(c3n[nH]c(=O)o3)C[C@H](O)C2)cc1F [Example 123, trans-5-[1-[2,5-difluoro-4-[[(3S,6R)-3-methyl-1,1-dioxo-6-phenyl-thiazinan-2-yl]methyl]phenyl]-3-hydroxy-cyclobutyl]-3H-1,3,4-oxadiazol-2-one] | 1.8 nM |
| Cc1cc(CNC2(c3cc(F)c(CN4[C@@H](C)CC[C@H](c5ccccc5)S4(=O)=O)cc3F)COC2)no1 [Example 95, 3-[2,5-difluoro-4-[[(3S,6R)-3-methyl-1,1-dioxo-6-phenyl-thiazinan-2-yl]methyl]phenyl]-N-[(5-methylisoxazol-3-yl)methyl]oxetan-3-amine] | 20.6 nM |
| C[C@H]1CC[C@H](c2ccccc2)S(=O)(=O)N1Cc1cc(F)c(C2(NCC3COC(=O)N3)COC2)cc1F (stereo partly drawn) [Example 125, 4-[[[3-[2,5-difluoro-4-[[(3S,6R)-3-methyl-1,1-dioxo-6-phenyl-thiazinan-2-yl]methyl]phenyl]oxetan-3-yl]amino]methyl]oxazolidin-2-one] | 56.6 nM |
| C[C@H]1CC[C@H](c2ccccc2)S(=O)(=O)N1Cc1cc(F)c([C@]2(c3c[nH]c(=O)o3)C[C@](C)(O)C2)cc1F [Example 158, 5-[1-[2,5-difluoro-4-[[(3S,6R)-3-methyl-1,1-dioxo-6-phenyl-thiazinan-2-yl]methyl]phenyl]-3-hydroxy-3-methyl-cyclobutyl]-3H-oxazol-2-one] | 3.2 nM |
| CO[C@]1(C)C[C@@](c2n[nH]c(=O)o2)(c2cc(F)c(CN3[C@@H](C)CC[C@H](c4ccccc4)S3(=O)=O)cc2F)C1 [Example 157, cis 5-[1-[2,5-difluoro-4-[[(3S,6R)-3-methyl-1,1-dioxo-6-phenyl-thiazinan-2-yl]methyl]phenyl]-3-methoxy-3-methyl-cyclobutyl]-3H-1,3,4-oxadiazol-2-one] | 7.4 nM |
| C[C@H]1CC[C@H](c2ccccc2)S(=O)(=O)N1Cc1cc(F)c([C@]2(c3nn(CC#N)c(=O)o3)C[C@](C)(O)C2)cc1F (racemic) [Example 174, 2-[5-[1-[2,5-difluoro-4-[[rac-(3S,6R)-3-methyl-1,1-dioxo-6-phenyl-thiazinan-2-yl]methyl]phenyl]-3-hydroxy-3-methyl-cyclobutyl]-2-oxo-1,3,4-oxadiazol-3-yl]acetonitrile] | 23 nM |
| C[C@H]1CC[C@H](c2ccccc2)S(=O)(=O)N1Cc1cc(F)c([C@]2([C@@H](O)Cc3ncn[nH]3)C[C@](C)(O)C2)cc1F (racemic) [Example 170, 3-[2,5-difluoro-4-[[rac-(3S,6R)-3-methyl-1,1-dioxo-6-phenyl-thiazinan-2-yl]methyl]phenyl]-1-methyl-3-[rac-(1S)-1-hydroxy-2-(1H-1,2,4-triazol-5-yl)ethyl]cyclobutanol] | 29.5 nM |
| C[C@H]1CC[C@H](c2ccccc2)S(=O)(=O)N1Cc1cc(F)c(C2(C(=O)N3CC[C@H](O)C3)CCOCC2)cc1F [Example 34, [4-[2,5-difluoro-4-[[(3S,6R)-3-methyl-1,1-dioxo-6-phenyl-thiazinan-2-yl]methyl]phenyl]tetrahydropyran-4-yl]-[(3S)-3-hydroxypyrrolidin-1-yl]methanone] | 98.5 nM |
| Cc1cc(CNC2(c3ccc(CN4[C@@H](C)CC[C@H](c5ccccc5)S4(=O)=O)c(F)c3)CCOCC2)no1 [Example 76, 4-[3-fluoro-4-[[(3S,6R)-3-methyl-1,1-dioxo-6-phenyl-thiazinan-2-yl]methyl]phenyl]-N-[(5-methylisoxazol-3-yl)methyl]tetrahydropyran-4-amine] | 4.6 nM |
| C[C@H]1CC[C@H](c2ccccc2)S(=O)(=O)N1Cc1cc(F)c(C2(NC(=O)c3cocn3)CCOCC2)cc1F [Example 80, N-[4-[2,5-difluoro-4-[[(3S,6R)-3-methyl-1,1-dioxo-6-phenyl-thiazinan-2-yl]methyl]phenyl]tetrahydropyran-4-yl]oxazole-4-carboxamide] | 4.8 nM |
| COC1(OC)CC(c2nnc[nH]2)(c2cc(F)c(CN3[C@@H](C)CC[C@H](c4ccccc4)S3(=O)=O)cc2F)C1 [Example 112, (3S,6R)-2-[[4-[3,3-dimethoxy-1-(4H-1,2,4-triazol-3-yl)cyclobutyl]-2,5-difluoro-phenyl]methyl]-3-methyl-6-phenyl-thiazinane 1,1-dioxide] | 4.6 nM |
| C[C@H]1CC[C@H](c2ccccc2)S(=O)(=O)N1Cc1cc(F)c([C@]2(c3n[nH]c(=O)o3)C[C@@](O)(C3CC3)C2)cc1F [Example 142, trans 5-[3-cyclopropyl-1-[2,5-difluoro-4-[[(3S,6R)-3-methyl-1,1-dioxo-6-phenyl-thiazinan-2-yl]methyl]phenyl]-3-hydroxy-cyclobutyl]-3H-1,3,4-oxadiazol-2-one] | 4.3 nM |
| Cc1cc(NC(=O)C2(c3ccc(CN4[C@@H](C)CC[C@H](c5ccccc5)S4(=O)=O)c(F)c3)CCOCC2)n(C)n1 (stereo in doubt) [Example 14, N-(2,5-dimethylpyrazol-3-yl)-4-[3-fluoro-4-[[(3S,6R)-3-methyl-1,1-dioxo-6-phenyl-thiazinan-2-yl]methyl]phenyl]tetrahydropyran-4-carboxamide] | 63.6 nM |
| C[C@H]1CC[C@H](c2ccccc2)S(=O)(=O)N1Cc1cc(F)c(C2(N3CC(=O)NC3=O)COC2)cc1F [Example 117, 1-[3-[2,5-difluoro-4-[[(3S,6R)-3-methyl-1,1-dioxo-6-phenyl-thiazinan-2-yl]methyl]phenyl]oxetan-3-yl]imidazolidine-2,4-dione] | 25.9 nM |

Same assay, conditions: IC50 values for RORc

| Compound | IC50 |
| --- | --- |
| cis 5-[1-[2,5-difluoro-4-[[(3S,6R)-3- methyl-1,1-dioxo-6-phenyl-thiazinan-2- yl]methyl]phenyl]-3-hydroxy-3- (trifluoromethyl)cyclobutyl]-3H-1,3,4- oxadiazol-2-one [Example 148] | 11 nM |
